# According to patent US20150111262A1, “METHODS AND MATERIALS FOR PRODUCING FIVE CARBON BUILDING BLOCKS FROM PROLINE” (INVISTA North America S.á r.l., priority 2013, published 2015):
# Legend:
# [1] = system: ω-transaminase of SEQ ID NO: 9; test: ω-transaminase activity, cadaverine to 5-aminopentanal; format: biochemical, Pseudomonas syringae
# Procedure: (§1) A sequence encoding an N-terminal His-tag was added to the Chromobacterium violaceum, Pseudomonas aeruginosa, Pseudomonas syringae and Escherichia coli genes encoding the ω-transaminases of SEQ ID NOs: 7, 8, 9 and 11, respectively (see FIG. 7) such that N-terminal HIS tagged ω-transaminases could be produced. The modified genes were cloned into a pET21a expression vector under the T7 promoter. Each expression vector was transformed into a BL21[DE3] E. coli host. Each resulting recombinant E. coli strain were cultivated at 37° C. in a 250 mL shake flask culture containing 50 mL LB media and antibiotic selection pressure, with shaking at 230 rpm. Each culture was induced overnight at 16° C. using 1 mM IPTG.
# (§2) The pellet from each induced shake flask culture was harvested via centrifugation. Each pellet was resuspended and lysed via sonication. The cell debris was separated from the supernatant via centrifugation and the cell free extract was used immediately in enzyme activity assays.
# (§3) Enzyme activity assays in the reverse direction (i.e., cadaverine to 5-aminopentanal) were performed in a buffer composed of a final concentration of 50 mM HEPES buffer (pH=7.5), 10 mM cadaverine, 10 mM pyruvate, and 100 μM pyridoxyl 5′ phosphate. […] The formation of L-alanine was quantified via RP-HPLC.
# [2] = system: ω-transaminase of SEQ ID NO: 8; test: as above; format: biochemical, Pseudomonas aeruginosa
# Procedure: as §1, §2, §3
# [3] = molecular target: T1, ω-transaminase of SEQ ID NO: 11 (Escherichia coli, UniProt P42588); test: as above; format: biochemical
# T1 construct: His-tag (N); made in house; host or cells: E. coli BL21[DE3], pET21a; cell free extract used
# T1 sequence (P42588 whole entry): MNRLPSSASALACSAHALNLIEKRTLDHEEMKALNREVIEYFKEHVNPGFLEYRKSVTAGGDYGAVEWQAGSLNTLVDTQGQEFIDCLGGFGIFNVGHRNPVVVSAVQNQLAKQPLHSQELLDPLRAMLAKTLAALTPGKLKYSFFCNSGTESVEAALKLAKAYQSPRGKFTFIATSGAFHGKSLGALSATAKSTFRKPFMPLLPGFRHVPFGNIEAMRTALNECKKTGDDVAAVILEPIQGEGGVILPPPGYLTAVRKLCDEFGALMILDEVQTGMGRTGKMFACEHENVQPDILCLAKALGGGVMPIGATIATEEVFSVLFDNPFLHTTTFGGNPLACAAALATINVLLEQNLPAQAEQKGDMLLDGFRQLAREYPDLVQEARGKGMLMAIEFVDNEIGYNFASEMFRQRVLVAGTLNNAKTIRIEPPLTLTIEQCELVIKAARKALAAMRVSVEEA
# Procedure: as §1, §2, §3
# [4] = system: ω-transaminase of SEQ ID NO: 7; test: as above; format: biochemical, Chromobacterium violaceum
# Procedure: as §1, §2, §3
# [5] = system: ω-transaminase of SEQ ID NO: 9; test: ω-transaminase activity, glutarate semialdehyde to 5-aminopentanoate (reverse direction); format: biochemical, Pseudomonas syringae; settings: SEQ ID 9
# Procedure: (§4) A sequence encoding an N-terminal His-tag was added to the genes from Chromobacterium violaceum and Pseudomonas syringae encoding the ω-transaminases of SEQ ID NOs: 7 and 9, respectively (see FIG. 7) such that N-terminal HIS tagged ω-transaminases could be produced. Each of the resulting modified genes was cloned into a pET21a expression vector under control of the T7 promoter and each expression vector was transformed into a BL21[DE3] E. coli host. The resulting recombinant E. coli strains were cultivated at 37° C. in a 250 mL shake flask culture containing 50 mL LB media and antibiotic selection pressure, with shaking at 230 rpm. Each culture was induced overnight at 16° C. using 1 mM IPTG.
# as §2
# Enzyme activity in the reverse direction (i.e., glutarate semialdehyde to 5-aminopentanoate) were performed in a buffer composed of a final concentration of 50 mM HEPES buffer (pH=7.5), 10 mM glutarate semialdehyde, 10 mM L-alanine and 100 μM pyridoxyl 5′ phosphate. […] The formation of pyruvate was quantified via RP-HPLC.
# [6] = system: ω-transaminase of SEQ ID NO: 7; test: ω-transaminase activity, 5-aminopentanoate to glutarate semialdehyde (forward direction); format: biochemical, Chromobacterium violaceum
# Procedure: as §4, §2
# Enzyme activity assays in the forward direction (i.e., 5-aminopentanoate to glutarate semialdehyde) were performed in a buffer composed of a final concentration of 50 mM HEPES buffer (pH=7.5), 10 mM 5-aminopentanoate, 10 mM pyruvate and 100 μM pyridoxyl 5′ phosphate. […] The formation of L-alanine from pyruvate was quantified via RP-HPLC.
# [7] = system: ω-transaminase of SEQ ID NO: 12; test: ω-transaminase activity, 5-aminopentanol to 5-oxopentanol; format: biochemical, Vibrio Fluvialis
# Procedure: (§5) A nucleotide sequence encoding an N-terminal His-tag was added to the Chromobacterium violaceum, Pseudomonas aeruginosa, Pseudomonas syringae, Rhodobacter sphaeroides, Escherichia coli and Vibrio Fluvialis genes encoding the ω-transaminases of SEQ ID NOs: 7-12 respectively (see FIG. 7) such that N-terminal HIS tagged ω-transaminases could be produced. The modified genes were cloned into a pET21a expression vector under the T7 promoter. Each expression vector was transformed into a BL21[DE3] E. coli host. Each resulting recombinant E. coli strain were cultivated at 37° C. in a 250 mL shake flask culture containing 50 mL LB media and antibiotic selection pressure, with shaking at 230 rpm. Each culture was induced overnight at 16° C. using 1 mM IPTG.
# as §2
# as §3, with “5-aminopentanol” for “cadaverine”, “5-oxopentanol)” for “5-aminopentanal)”, “5-aminopentanol,” for “cadaverine,”
# [8] = system: ω-transaminase of SEQ ID NO: 10; test: as above; format: biochemical, Rhodobacter sphaeroides
# Procedure: as §5, §2
# as §3, with “5-aminopentanol” for “cadaverine”, “5-oxopentanol)” for “5-aminopentanal)”, “5-aminopentanol,” for “cadaverine,”
# [9] = system: ω-transaminase of SEQ ID NO: 8; test: as above; format: biochemical, Pseudomonas aeruginosa
# Procedure: as §5, §2
# as §3, with “5-aminopentanol” for “cadaverine”, “5-oxopentanol)” for “5-aminopentanal)”, “5-aminopentanol,” for “cadaverine,”
# [10] = system: ω-transaminase of SEQ ID NO: 7; test: as above; format: biochemical, Chromobacterium violaceum
# Procedure: as §5, §2
# as §3, with “5-aminopentanol” for “cadaverine”, “5-oxopentanol)” for “5-aminopentanal)”, “5-aminopentanol,” for “cadaverine,”
# [11] = system: ω-transaminase of SEQ ID NO: 9; test: as above; format: biochemical, Pseudomonas syringae
# Procedure: as §5, §2
# as §3, with “5-aminopentanol” for “cadaverine”, “5-oxopentanol)” for “5-aminopentanal)”, “5-aminopentanol,” for “cadaverine,”
# [12] = molecular target: T1, ω-transaminase of SEQ ID NO: 11; test: as above; format: biochemical
# Procedure: as §5, §2
# as §3, with “5-aminopentanol” for “cadaverine”, “5-oxopentanol)” for “5-aminopentanal)”, “5-aminopentanol,” for “cadaverine,”
# [13] = molecular target: gene product of ygjG (Escherichia coli, UniProt P42588); settings: Samsonova et al., BMC Microbiology, 2003; cited from earlier work
# gene product of ygjG, sequence (P42588 whole entry): as above
smiles,measurement,setting,value
NCCCCC=O [5-aminopentanal],"acceptance as substrate, forming cadaverine, concluded from reversibility of the ω-transaminase activity",[1]; SEQ ID 9,accept 5-aminopentanal as substrate
same,"acceptance as substrate, forming cadaverine, concluded from reversibility of the ω-transaminase activity",[2]; SEQ ID 8,accept 5-aminopentanal as substrate
same,"acceptance as substrate, forming cadaverine, concluded from reversibility of the ω-transaminase activity",[3]; SEQ ID 11,accept 5-aminopentanal as substrate
same,"acceptance as substrate, forming cadaverine, concluded from reversibility of the ω-transaminase activity",[4]; SEQ ID 7,accept 5-aminopentanal as substrate
NCCCCC(=O)O [5-aminopentanoate],"acceptance as substrate, forming 5-oxopentanoate, concluded from reversibility of the ω-transaminase activity",[5],accept 5-aminopentanoate as substrate
same,"acceptance as substrate, forming 5-oxopentanoate, concluded from reversibility of the ω-transaminase activity",[6]; SEQ ID 7,accept 5-aminopentanoate as substrate
same,acceptance as substrate (conversion of pyruvate to L-alanine) vs empty vector control,"[6]; cell free extract, 10 mM 5-aminopentanoate, 10 mM pyruvate, pH 7.5, 25° C., 4 h, RP-HPLC, FIG. 8",accepted 5-aminopentanoate as substrate
NCCCCCO [5-aminopentanol],acceptance as substrate (conversion of pyruvate to L-alanine) vs empty vector control,"[7]; SEQ ID NO 12, 10 mM 5-aminopentanol, 10 mM pyruvate, pH 7.5, 25° C., 4 h, FIG. 13",accepted 5-aminopentanol as substrate
same,acceptance as substrate (conversion of pyruvate to L-alanine) vs empty vector control,"[8]; SEQ ID NO 10, 10 mM 5-aminopentanol, 10 mM pyruvate, pH 7.5, 25° C., 4 h, FIG. 13",accepted 5-aminopentanol as substrate
same,acceptance as substrate (conversion of pyruvate to L-alanine) vs empty vector control,"[9]; SEQ ID NO 8, 10 mM 5-aminopentanol, 10 mM pyruvate, pH 7.5, 25° C., 4 h, FIG. 13",accepted 5-aminopentanol as substrate
same,acceptance as substrate (conversion of pyruvate to L-alanine) vs empty vector control,"[10]; SEQ ID NO 7, 10 mM 5-aminopentanol, 10 mM pyruvate, pH 7.5, 25° C., 4 h, FIG. 13",accepted 5-aminopentanol as substrate
same,acceptance as substrate (conversion of pyruvate to L-alanine) vs empty vector control,"[11]; SEQ ID NO 9, 10 mM 5-aminopentanol, 10 mM pyruvate, pH 7.5, 25° C., 4 h, FIG. 13",accepted 5-aminopentanol as substrate
same,acceptance as substrate (conversion of pyruvate to L-alanine) vs empty vector control,"[12]; SEQ ID NO 11, 10 mM 5-aminopentanol, 10 mM pyruvate, pH 7.5, 25° C., 4 h, FIG. 13",accepted 5-aminopentanol as substrate
O=CCCCCO [5-oxopentanol],"acceptance as substrate, forming 5-aminopentanol, concluded from reversibility of the ω-transaminase activity",[7]; SEQ ID 12,accept 5-oxopentanol as substrate
same,"acceptance as substrate, forming 5-aminopentanol, concluded from reversibility of the ω-transaminase activity",[8]; SEQ ID 10,accept 5-oxopentanol as substrate
same,"acceptance as substrate, forming 5-aminopentanol, concluded from reversibility of the ω-transaminase activity",[9]; SEQ ID 8,accept 5-oxopentanol as substrate
same,"acceptance as substrate, forming 5-aminopentanol, concluded from reversibility of the ω-transaminase activity",[10]; SEQ ID 7,accept 5-oxopentanol as substrate
same,"acceptance as substrate, forming 5-aminopentanol, concluded from reversibility of the ω-transaminase activity",[11]; SEQ ID 9,accept 5-oxopentanol as substrate
same,"acceptance as substrate, forming 5-aminopentanol, concluded from reversibility of the ω-transaminase activity",[12]; SEQ ID 11,accept 5-oxopentanol as substrate
NCCCCCN [cadaverine],acceptance as diamine substrate,[13],accepts
same,acceptance as substrate (conversion of pyruvate to L-alanine) vs empty vector control,"[1]; SEQ ID NO 9, 10 mM cadaverine, 10 mM pyruvate, pH 7.5, 25° C., 4 h, FIG. 14",accepted cadaverine as substrate
same,acceptance as substrate (conversion of pyruvate to L-alanine) vs empty vector control,"[2]; SEQ ID NO 8, 10 mM cadaverine, 10 mM pyruvate, pH 7.5, 25° C., 4 h, FIG. 14",accepted cadaverine as substrate
same,acceptance as substrate (conversion of pyruvate to L-alanine) vs empty vector control,"[3]; SEQ ID NO 11, 10 mM cadaverine, 10 mM pyruvate, pH 7.5, 25° C., 4 h, FIG. 14",accepted cadaverine as substrate
same,acceptance as substrate (conversion of pyruvate to L-alanine) vs empty vector control,"[4]; SEQ ID NO 7, 10 mM cadaverine, 10 mM pyruvate, pH 7.5, 25° C., 4 h, FIG. 14",accepted cadaverine as substrate
NCCCCN [putrescine],acceptance as diamine substrate,[13],accepts
NCCCCNCCCN [spermidine],acceptance as diamine substrate,[13],accepts
